In PMC8571951, “An activity‐based bioprobe differentiates a novel small molecule inhibitor from a LOXL2 antibody and provides renewed promise for anti‐fibrotic therapeutic strategies” (Clinical and Translational Medicine, 2021):

Molecular target: T1, LOXL2 (Homo sapiens, UniProt Q9Y4K0)
T1 sequence (Q9Y4K0 26-774): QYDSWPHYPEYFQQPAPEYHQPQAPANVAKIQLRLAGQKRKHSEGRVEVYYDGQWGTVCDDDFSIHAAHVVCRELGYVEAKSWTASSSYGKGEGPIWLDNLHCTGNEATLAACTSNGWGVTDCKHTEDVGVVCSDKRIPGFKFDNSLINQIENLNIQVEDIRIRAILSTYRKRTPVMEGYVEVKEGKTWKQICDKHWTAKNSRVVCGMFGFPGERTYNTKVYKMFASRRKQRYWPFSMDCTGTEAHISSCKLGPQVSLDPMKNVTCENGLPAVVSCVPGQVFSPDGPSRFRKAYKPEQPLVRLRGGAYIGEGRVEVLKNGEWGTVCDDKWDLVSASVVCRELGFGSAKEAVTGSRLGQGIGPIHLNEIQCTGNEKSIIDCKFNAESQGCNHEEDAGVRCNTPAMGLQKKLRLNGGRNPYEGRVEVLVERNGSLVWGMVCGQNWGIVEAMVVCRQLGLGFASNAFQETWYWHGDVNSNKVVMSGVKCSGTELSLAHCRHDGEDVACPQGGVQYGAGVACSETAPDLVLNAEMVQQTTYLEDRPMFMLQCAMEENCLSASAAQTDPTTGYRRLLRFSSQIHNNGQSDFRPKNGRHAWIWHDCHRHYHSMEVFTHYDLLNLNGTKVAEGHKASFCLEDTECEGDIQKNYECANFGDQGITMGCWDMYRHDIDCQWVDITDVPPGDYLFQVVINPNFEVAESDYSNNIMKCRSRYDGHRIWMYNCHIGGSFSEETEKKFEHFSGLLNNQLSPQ
Experiment: Phase 1 study, LOXL2 activity in plasma after single oral dose (PXS-5878/Simoa)
Type: in vivo
Design: from tissue; host or cells: human plasma (activity) and human serum (protein concentration) from clinical trial subjects
Settings: for Inhibition of LOXL2 activity: healthy humans
Procedure: To confirm the therapeutic potential of the anti‐fibrotic PXS‐5338 (Figure S5) in humans, LOXL2 inhibition after oral administration was examined in a phase 1 study. […] This underscored the fast resynthesis of LOXL2 in humans, similar to that seen in rodents, with ca. 80% of enzyme activity returning within 24 h.
FIGURE 3 Inhibition of human lysyl oxidase‐like 2 (LOXL2) enzymatic activity by PXS‐5338 in clinical trials. (A) LOXL2 protein concentration in human serum is fairly constant over 24 h. Protein concentrations normalised to pre‐dose levels are plotted over time in healthy subjects treated with different doses (placebo, 100, 200 and 400 mg) of PXS‐5338. Mean ± SD with n = 6/time point. Phase 1 study with healthy male volunteers, ANZCTR ACTRN12617001444370. Legend of (A) also applies to (B) and (C). (B) Dose‐dependent inhibition of LOXL2 in plasma following a single oral dose of 100, 200 mg or 400 mg PXS‐5338. PXS‐5878/Simoa® platform used to measure the residual activity. Mean ± SD with n = 6/time point. (C) Pharmacokinetic (PK) profile of PXS‐5338 in healthy human males. […] (D) Correlation between LOXL2 protein concentration versus % inhibition. Activity data normalised to pre‐dose value.
The platform consists of an activity-based probe (ABP) for the detection of enzyme activity in conjunction with the Simoa^TM (single molecule array) bead technology to isolate the protein. This platform has enabled accurate measurement of total protein and enzymatic activity of LOXL2 from small volumes of serum, plasma and tissue.
In the immunoassay, paramagnetic capture beads are coated with a LOXL2 capture antibody (AF2639). 100 µL of pre-diluted (4-fold) sample in buffer (0.5% Casein, 0.25% Tween-20 in PBS) is combined in a cuvette with the capture beads (25 µL for protein content at 1.6 x 10^7 beads/mL; 100 µL for enzyme activity at 4 x 10^6 beads/mL). The biotinylated detector agent [either a second anti-LOXL2 antibody (AB213598) for protein content or the ABP (PXS-5878) for enzyme activity) is then added during the same incubation with intermittent shaking at room temperature (35 minutes for protein content or 54 minutes for enzyme activity).
Target molecules present in the sample are captured by the antibody coated beads and bound with the detector agent simultaneously. After incubation, beads are pelleted by magnetic separation, excess sample/buffer and reagents aspirated off and beads resuspended in wash buffer to remove unbound proteins and excess reagents.
Following protein capture and incubation with the detector, a conjugate of streptavidin-β-galactosidase (SβG; 100 µL at 300 - 350 pM) is mixed with the beads and incubated (5 minutes with intermittent shaking at room temperature). SβG binds to the biotinylated detector agent, resulting in enzyme-labelling of captured LOXL2. Following a final wash, the beads are resuspended in a resorufin-β-D-galactopyranoside (RGP) substrate solution and transferred to a Simoa^TM Disc (containing a microarray to separate beads into individual microwells). After settling into the microarray via gravity, beads are then sealed in microwells with oil. If LOXL2 is captured and labelled on the bead, β-galactosidase hydrolyses the RGP substrate in the microwell into a fluorescent product that provides the signal for measurement. A single-labelled target molecule results in sufficient fluorescent signal that can be detected and counted by the Simoa^TM optical system. The percentage of bead-containing wells in the array that have a positive signal is proportional to the amount of target or activity present in the sample.
To determine protein concentration, data can be interpolated from a calibration curve using rh LOXL2. For enzyme activity, samples are incubated for at least 30 minutes at room temperature with or without the pan-LOX inhibitor (100 μM BAPN). […]

## CC(C)c1c(Cc2ccc(S(C)(=O)=O)nc2)c2ncccc2n1C/C(F)=C/CN [PXS‐5338]
Single oral dose 100 mg, 4 h
  Inhibition of LOXL2 activity: 80%
Single oral dose 100 mg, 24 h
  Inhibition of LOXL2 activity: approximately 20%
Single oral dose 200 mg, 4 h
  Inhibition of LOXL2 activity: complete inhibition
Single oral dose 200 mg, 24 h
  Inhibition of LOXL2 activity: 50%
Single oral dose 400 mg, 4 h
  Inhibition of LOXL2 activity: complete inhibition
Single oral dose 400 mg, 24 h
  Inhibition of LOXL2 activity: 70%
Phase 1 samples, n = 210, read-out: Calculated IC50 from correlation of concentration versus % inhibition
  IC50: 24 nM
